Source: patent publication US20110021625A1, “NEURONAL CELL DEATH INHIBITOR” (LEAD CHEMICAL CO., LTD., priority 2008, published 2011)

Columns and labels:
Type in all cases: cell-based, SD rats
[1] = tested on: rat cerebral cortical neurons treated with Aβ(25-35); experiment: Measurement of neuronal cell death induced by Aβ(25-35) (calcein AM uptake, cell viability); conditions: 10 μM Aβ(25-35) and Compound 11 100 nM, 8-well culture slide, 4 days; FIG. 2; vs control group
Method: Cerebral cortical neurons of SD rats (embryonic day 18) were primary cultured. The neurons were seeded in a 24-well culture dish at a density of 2.86×10^5 cells/cm^2, and after 3 days, simultaneously treated with 10 μM partial peptide including the 25 to 35-amino acid residue of Aβ (hereinafter called Aβ(25-35)) and each of Compounds 1 to 5 (100 nM). After another 4 days, 6 μM calcein AM was added, the whole was incubated for 40 minutes at 37° C., and the fluorescence intensity at 485 nm was measured so that the uptake of calcein AM into the neurons was calculated to determine the cell viability. The group without the Aβ(25-35) treatment and the administration of any medical agents was defined as a control group, and the group with the Aβ(25-35) treatment but without the administration of any medical agents was defined as a vehicle group.
Separately, the neurons were seeded in an 8-well culture slide at a density of 2.14×10^5 cells/cm^2, and after 5 days, simultaneously treated with 10 μM Aβ(25-35) and Compound 11 (100 nM). After another 4 days, 6 μM calcein AM was added, and the whole was incubated for 40 minutes at 37° C. Then the neurons were fixed, and the fluorescence image was obtained under a fluorescence microscope AX-80. The uptake of calcein AM into the neurons was quantitatively analyzed with an ATTO Densitograph (ATTO, Tokyo, Japan) to determine the cell viability. […]

[2] = tested on: rat cerebral cortical neurons treated with Aβ(1-42); experiment: Measurement of dendrite atrophy induced by Aβ(1-42) (MAP2 immunostaining); conditions: 5 μM Aβ(1-42), after 3 days each of Compounds 5, 11, 21, and 22 (1 μM), another 5 days; FIG. 5; vs control group
Method: Cerebral cortical neurons of SD rats (embryonic day 18) were primary cultured. The neurons were seeded in an 8-well culture slide at a density of 2.6×10^5 cells/cm^2. After 5 days, the neurons were treated with 5 μM Aβ(1-42), and after another 3 days, treated with each of Compounds 5, 11, 21, and 22 (each 1 μM). After another 5 days, immunostaining was carried out. The used primary antibody was a rabbit polyclonal antibody against MAP2 that is as a marker protein of the dendrite (a dilution degree of 500; Chemicon, Temecula, Calif., USA). The used secondary antibody was Alexa Fluor 568 labeled goat anti-rabbit IgG (a dilution degree of 300; Molecular Probes, Carlsbad, Calif., USA). The neurons were observed under a fluorescence microscope AX-80 (Olympus, Tokyo, Japan) and the fluorescence image was obtained. The average length of the dendrites per neuron was measured with Neurocyte Ver. 1.5 (Toyobo, Osaka, Japan). The group without the Aβ(1-42) treatment and the administration of any medical agents was defined as a control group, and the group with the Aβ(1-42) treatment but without the administration of any medical agents was defined as a vehicle group.

[3] = tested on: rat cerebral cortical neurons treated with Aβ(1-42); experiment: Measurement of axon atrophy induced by Aβ(1-42) (phosphorylated neurofilament H immunostaining); conditions: 5 μM Aβ(1-42), after 3 days each of Compounds 5, 11, 21, and 22 (1 μM), another 5 days; FIG. 6; vs control group
Method: Cerebral cortical neurons of SD rats (embryonic day 18) were primary cultured. The neurons were seeded in an 8-well culture slide at a density of 2.6×10^5 cells/cm^2, after 5 days, treated with 5 μM Aβ(1-42), and after another 3 days, treated with each of Compounds 5, 11, 21, and 22 (each 1 μM). After another 5 days, immunostaining was carried out. The used primary antibody was a mouse monoclonal antibody against phosphorylated neurofilament H that is a marker protein of the axon (a dilution degree of 500; Sternberger Monoclonals, MD, USA). The used secondary antibody was Alexa Fluor 488 labeled goat anti-[…] IgG (a dilution degree of 300; Molecular Probes, Carlsbad, Calif., USA). The neurons were observed under a fluorescence microscope AX-80 (Olympus, Tokyo, Japan) and the fluorescence image was obtained. The average length of the axons per neuron was measured with Neurocyte Ver. 1.5 (Toyobo, Osaka, Japan). The group without the Aβ(1-42) treatment and the administration of any medical agents was defined as a control group, and the group with the Aβ(1-42) treatment but without the administration of any medical agents was defined as a vehicle group.

## N#CC12CCC3(OCCO3)C3=COC(Cc4ccc(O)cc41)C32 (stereo not drawn) [Compound 11, 9-hydroxy-2,3,5a,10c-tetrahydro-1H,6H-5-oxa-3-oxo-acephenanthrylene-10b-carbonitrile ethylene ketal]
[1]
  cell viability (uptake of calcein AM, fluorescence image): cell viability remarkably higher than that of the control group

## COc1cc2c(cc1O)C1(C#N)CCC3(OCCO3)C3=COC(C2)C31 (stereo not drawn) [Compound 22, 9-hydroxy-8-methoxy-2,3,5a,10c-tetrahydro-1H,6H-5-oxa-3-oxo-acephenanthrylene-10b-carbonitrile ethylene ketal]
[2]
  dendrite outgrowth effect (average length of the dendrites per neuron): dendrite outgrowth effect remarkably higher than that of the control group
[3]
  axon outgrowth effect (average length of the axons per neuron): axon outgrowth effect remarkably higher than that of the control group
